Results as given in ChEMBL document CHEMBL5550181 (Bioorg Med Chem, 2024).
Activity calls are given as the source filed them. The calls are words filed in the database; no cut-off is given here.

Key:
[1] = molecular target: T1, Proteasome subunit beta type-8 (Homo sapiens, UniProt P28062); assay: Inhibition of human LMP7 beta -5i subunit using Ac-ANW-AMC as substrate preincubated with compound for 30 mins followed by substrate addition and measured after 1 hr by fluorescence based analysis
T1 sequence (P28062 whole entry): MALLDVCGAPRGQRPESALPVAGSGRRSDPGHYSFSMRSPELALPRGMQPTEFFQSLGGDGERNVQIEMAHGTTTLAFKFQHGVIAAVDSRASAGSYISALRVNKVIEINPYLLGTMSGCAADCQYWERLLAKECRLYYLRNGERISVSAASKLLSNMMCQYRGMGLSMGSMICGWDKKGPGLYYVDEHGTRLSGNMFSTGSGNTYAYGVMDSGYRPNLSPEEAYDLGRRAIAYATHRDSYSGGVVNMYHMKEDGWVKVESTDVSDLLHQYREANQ

[2] = Effect on hematological parameters in C57BL/6 mouse at 3 to 30 mg/kg, po administered for 9 days; type: toxicity, organism-based; details: in vivo, 216 h, dose 3-30 mg/kg, time 9 day
[3] = Microsomal stability in mouse liver microsome assessed as intrinsic clearance; type: ADME; details: liver microsomes, read-out: CLH
Homo sapiens [4] = organism: Homo sapiens; assay: Selectivity index, ratio of IC50 for inhibition of human 20S proteosome beta5c subunit using Ac-WLA-AMC as substrate to IC50 for inhibition of human LMP7 beta -5i subunit using Ac-ANW-AMC as substrate
[5] = molecular target: T2, Proteasome Macropain subunit MB1 (Homo sapiens, UniProt P28074); assay: Inhibition of human 20S proteosome beta5c subunit using Ac-WLA-AMC as substrate preincubated with compound for 30 mins followed by substrate addition and measured after 1 hr by fluorescence based analysis
T2 sequence (P28074 whole entry): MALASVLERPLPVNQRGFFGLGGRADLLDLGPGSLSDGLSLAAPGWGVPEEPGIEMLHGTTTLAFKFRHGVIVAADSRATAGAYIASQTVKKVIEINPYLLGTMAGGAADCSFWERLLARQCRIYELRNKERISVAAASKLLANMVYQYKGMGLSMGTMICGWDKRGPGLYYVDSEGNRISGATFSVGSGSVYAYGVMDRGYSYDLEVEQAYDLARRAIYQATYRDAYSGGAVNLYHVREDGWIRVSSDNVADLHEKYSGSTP

Plasma = assay: Reduction in NP30-specific IgG level in plasma of NP-OVA-induced C57BL/6 mouse model at 30 mg/kg, po administered for 9 days by ELISA analysis; type: functional, organism-based; details: time 9.0 day
[6] = Drug metabolism in human liver microsomes assessed as reactive metabolite formation by measuring dGSH trapping measured per mg of protein incubated for 60 mins in presence of NADPH by HPLC analysis; type: ADME, Microsome; details: 1 h
Mus musculus [7] = assay: Inhibition of NP30-IgG production in NP-OVA-induced po dosed C57BL/6 mouse model administered for 9 days by ELISA analysis; type: functional, organism-based; details: dose 3-30 mg/kg, time 9.0 day
[8] = molecular target: T3, Proteasome subunit beta type-9 (Homo sapiens, UniProt P28065); assay: Inhibition of human LMP2 beta-1i subunit using Ac-PAL-AMC as substrate preincubated with compound for 30 mins followed by substrate addition and measured after 1 hr by fluorescence based analysis
T3 sequence (P28065 whole entry): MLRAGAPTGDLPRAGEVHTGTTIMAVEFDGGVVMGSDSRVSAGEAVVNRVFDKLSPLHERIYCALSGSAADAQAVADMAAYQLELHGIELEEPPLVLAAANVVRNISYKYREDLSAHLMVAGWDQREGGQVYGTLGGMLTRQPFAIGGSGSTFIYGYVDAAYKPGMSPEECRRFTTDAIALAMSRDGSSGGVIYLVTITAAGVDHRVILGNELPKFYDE

[9] = Permeability of the compound by PAMPA assay; type: ADME; details: read-out: permeability
Mus musculus [10] = assay: Reduction in NP30-specific IgG level in GCB of NP-OVA-induced C57BL/6 mouse model at 10 to 30 mg/kg, po administered for 9 days by flow cytometry analysis; type: functional, organism-based; details: dose 10-30 mg/kg, time 9.0 day
Homo sapiens [11] = organism: Homo sapiens; assay: Selectivity index, ratio of IC50 for inhibition of human 20S proteosome beta5c subunit using Ac-WLA-AMC as substrate to IC50 for inhibition of human LMP2 beta-1i subunit using Ac-PAL-AMC as substrate

IC50 [1] [nM]	microsomal CLint [3] [µL/min/mg]	Ratio IC50 (Homo sapiens [4])	IC50 [5] [nM]	Drug metabolism [6] [pmol/h]	IC50 [8] [nM]	Papp [9] [×10⁻⁶ cm/s]	Ratio IC50 (Homo sapiens [11])	Compound	Activity [2]	Activity (Plasma)	inhibition (Mus musculus [7])	Activity (Mus musculus [10])
888		22	19500		226			CC(C)C[C@H](NC(=O)c1cc(C2CCCCC2)nn1C)B(O)O				
82		36	2950		10			CC(C)C[C@H](NC(=O)c1ccc(C2CCCCC2)nn1)B(O)O				
1570		4	6310		62			CC(C)C[C@H](NC(=O)c1cnn(C2CCCCC2)n1)B(O)O				
73		44	3220	1273	3		1070	CC(C)C[C@H](NC(=O)c1cn(C2CCCCC2)nn1)B(O)O				
192		19	3690		5			CC(C)C[C@H](NC(=O)c1cc(C2CCCCC2)no1)B(O)O				
18800		> 4	> 80000		132			CC(C)C[C@H](NC(=O)c1cnn(C2CCCCC2)c1)B(O)O				
1210		39	47300		189			Cc1c(C(=O)N[C@@H](CC(C)C)B(O)O)nnn1C1CCCCC1				
11200		> 7	> 80000		188			CC(C)C[C@H](NC(=O)c1cc(C2CCCCC2)n(C)n1)B(O)O				
145		21	2980		9			CC(C)C[C@H](NC(=O)c1cc(C2CCCCC2)on1)B(O)O				

Further lines, the compound ahead of its results:

Compound	IC50 [1] [nM]	microsomal CLint [3] [µL/min/mg]	Ratio IC50 (Homo sapiens [4])	IC50 [5] [nM]	Drug metabolism [6] [pmol/h]	IC50 [8] [nM]	Papp [9] [×10⁻⁶ cm/s]	Ratio IC50 (Homo sapiens [11])	Activity [2]	Activity (Plasma)	inhibition (Mus musculus [7])	Activity (Mus musculus [10])
O=C(N[C@H](B(O)O)C1CCCCC1)c1cn(C2CCCCC2)nn1	257	99	174	44600	342	10	11.9		Non-Toxic	Active	Dose-Dependent Effect	Active
COc1ccc([C@@H](O)[C@H](NC(=O)[C@H](C)NC(=O)CN2CCOCC2)C(=O)N[C@@H](CC2=CCCC2)C(=O)[C@@]2(C)CO2)cc1 [ZETOMIPZOMIB]	75		9.6	720		557		1.29				
O=C(N[C@H](B(O)O)C1CCCC1)c1cn(C2CCCCC2)nn1	132		39	5200		18						
O=C(N[C@@H](CC1CCC1)B(O)O)c1cn(C2CCCCC2)nn1	198		66	13100		< 5						
O=C(N[C@@H](CC1CCCCC1)B(O)O)c1cn(C2CCCCC2)nn1	130		150	19500	680	< 10						
O=C(N[C@@H](Cc1ccccc1)B(O)O)c1cn(C2CCCCC2)nn1	8		38	302	736	5						
O=C(N[C@@H](CC1CCCC1)B(O)O)c1cn(C2CCCCC2)nn1	63		244	15400	426	< 5						
O=C(N[C@H](B(O)O)C1CCC1)c1cn(C2CCCCC2)nn1	655		8	4950		< 5						
O=C(N[C@@H](Cc1coc2ccccc12)B(O)O)[C@@H]1C[C@H]2CC[C@@H]1O2	8		302	2410		> 80000						
